Patent US20260327239A1, “COMPOUNDS FOR COVALENT INHIBITION OF SHP2” (Purdue Research Foundation, priority 2023, published 2026)
“Also recorded” adds a separate entry of the source.

Key:
SHP2 (residues 224-528) = biological target: T1, SHP2 (residues 224-528) (Homo sapiens, UniProt Q06124); experiment: Kinetic characterization of SHP2 inactivation (pNPP cleavage progress curves, kobs, kinact/KI); format: biochemical
T1 construct: 4× solution of SHP2 (residues 224-528)
T1 sequence (Q06124 224-528): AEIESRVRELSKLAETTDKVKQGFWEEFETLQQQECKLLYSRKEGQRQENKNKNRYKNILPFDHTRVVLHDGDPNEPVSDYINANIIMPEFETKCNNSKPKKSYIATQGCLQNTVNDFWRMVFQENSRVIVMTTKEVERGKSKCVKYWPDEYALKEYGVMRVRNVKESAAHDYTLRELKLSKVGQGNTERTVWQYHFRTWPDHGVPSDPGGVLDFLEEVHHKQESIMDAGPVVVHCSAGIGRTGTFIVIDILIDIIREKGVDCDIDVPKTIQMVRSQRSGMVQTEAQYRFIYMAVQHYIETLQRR
From the text: Covalent inhibitors work by forming a covalent bond with a reactive functional group in the target enzyme. Consequently, the kinetics for enzyme inactivation by a covalent inhibitor is not an equilibrium process as with reversible inhibition. The potency of a reversible inhibitor can be measured by its IC50 value. Unlike reversible inhibitors, where inhibition is only concentration-dependent, covalent inhibitors show both time- and concentration-dependent target inhibition (a covalent bond formation is a time-dependent event). If sufficient time is available, covalent inhibitors can completely neutralize the target, rather than go to equilibrium. As a result, the potency and selectivity of a covalent inhibitor cannot be determined by IC50 values; instead, the rate of inactivation of the target (kinact) and the inhibition constant (KI) were determined. The bimolecular rate constant (kinact/KI), was chosen to rank the potency of covalent inhibitors (Ruddraraju et al., 2017, Molecular Biosystems 13(7), 1257-1279).
PTPs catalyze the dephosphorylation of tyrosine-phosphorylated protein substrates through a conserved mechanism that relies on a catalytic cysteine residue (Zhang, Z.-Y et al., 2003, Prog. Nucleic Acid Research Molecular Biology, 73, 171-220). This provides a mechanistic rationale for the assessment of electrophilic Michael acceptors, such as those synthesized in the present disclosure as potential covalent inhibitors of the SHP2. The enzymatic cleavage of para-nitrophenyl phosphate by SHP2 was measured over time in the presence of 100 μM inhibitor or DMSO, to determine the observed first-order rate constant (kobs). Based on kobs values, compounds were further evaluated in a dose-dependent manner to determine the second-order rate constant (kinact/KI) indicating the overall efficacy of the compounds, which was used to assess the structure-activity relationship (SAR) for the analogs of interest and design additional analogs (see Table 1). […] It has been known that modifications to the electronegativity of substituents proximal to electrophilic centers alter the reactivity of the electrophile.
The efficacy of covalent inhibitors can be broken down into the initial reversible binding of the compounds (KI), and the rate of covalent bond formation and enzyme inactivation (kinact). These two constants can be used individually, or as a ratio to determine the overall efficacy of the inhibitor's efficacy. To investigate the contribution to reversible binding compound (34) was evaluated, which lacks the carbonyl of the Michael acceptor to prevent the formation of a covalent adduct.
Inhibitors were evaluated for their ability to inhibit the reaction catalyzed by SHP2 using para-nitrophenyl phosphate (pNPP) as a substrate at pH 7 and 25° C. A 2× solution of inhibitor was diluted into DMG buffer (50 mM 3,3-dimethylglutarate pH 7.0, 1 mM EDTA, ionic strength adjusted to 150 mM using NaCl) was added to a clear flat-bottom 96-well plate (Corning Costar Assay Plate #9017), and serially diluted 1.5-fold, resulting in 100 μL volumes of varying inhibitor concentrations. To this was added a 4× solution of pNPP (12 mM) in DMG buffer. The reaction was initialized by the addition of a 4× solution of SHP2 (residues 224-528), resulting in a final solution of: inhibitor (100-0 μM), pNPP (3 mM), and SHP2 (100 nM). The plate was then monitored for a change in absorbance ab […] using a CLARIOstar^Plus plate reader (BMG Labetch) over the course of an hour. The resulting progress curves for each inhibitor were imported into Graphpad Prism 9 (GraphPad Software, San Diego, CA (USA)), and a baseline correction analysis was completed for fitting purposes. Each curve was fit to the equation Y=V0×(1−e^−kobs*t)/kobs.^[17.22] The kobs values were then plotted against inhibitor concentrations. If the resulting graph was linear, the kinact/KI value was determined by the slope of that line and the 95% confidence interval (95% CI). […]

SHP2 [1] = biological target: T2, SHP2 (Homo sapiens, UniProt Q06124); experiment: Covalent adduct formation on SHP2 by intact protein LC-MS; format: binding; settings: 10 μM SHP2, 60 minutes
T2 construct: 4× solution of SHP2 (residues 224-528)
T2 sequence (Q06124 224-528): T1 sequence (Q06124 224-528)
Method: To validate covalent modification of SHP2 by the active compounds, adduct formation on SHP2 was measured by intact protein liquid chromatography-mass spectrometry (LC-MS). With intact protein LC-MS, multiply charged states of the protein species can be deconvoluted to achieve the total mass(es). Compounds were incubated with 10 μM SHP2 for 60 minutes before being quenched with acetonitrile for LC-MS analysis by electrospray ionization (ESI) in positive mode. […] (33), and (42) (FIGS. 3A and 3B).
To unfold protein and quench protein-ligand reactivity, 10 μL of treated or untreated 10 μM SHP2 was diluted in 40 μL of 80% (v/v) formic acid initially, followed by 150 μL of LC-MS buffer (50/50 water/acetonitrile with 0.1% formic acid). 20-25 pmol per sample was analyzed by LC/MS (Agilent 1260 Infinity II with a ZORBAX Rapid Resolution High Definition 300 Å Stable Bond C3, 2.1×100 mm, 1.8 μm column) attached to an Agilent 6129 quadrupole mass spectrometer in positive ion mode. The column was held at 45° C. Mobile solution A was 0.1% formic acid in water, and mobile phase B was 0.1% formic acid in acetonitrile. The gradient used was hold at 10% B for 5 min, increase linearly to 80% B for 15 min, and then hold at 80% B for 5 min. The mass data were collected at a range of 600-1500 m/z. Raw data were processed using MestReNova. For all samples, the deconvoluted mass was calculated by taking the m/z range of 730-1100 Da, and deconvoluted mass range from 36500-37200 Da. An abundance threshold of 10% and tolerance of 30 ppm was set for deconvolution. Unreacted SHP2's total deconvoluted mass was 36602±10 Da; for each deconvolution, the highest deconvoluted mass intensity was utilized as the mass pivot point to determine and identify reacted SHP2 adducts. To calculate the percent SHP2 reacted, the relative abundance intensity of reacted SHP2 was divided by the total relative abundance intensities of unreacted and reacted SHP2.

SHP2 [2] = biological target: T2, SHP2; experiment: Active site protection by vanadate (jump-dilution assay); format: biochemical; settings: role: inhibitor, 10 min, diluted 100-fold into 10 mM pNPP
Method: To further support a covalent mechanism of action and engagement of the SHP2 active site, a jump-dilution assay was employed both in the presence and absence of the known reversible PTP active site competitive inhibitor vanadate (VO4) (Seiner, D. R. et al., Chem. Res. Toxicol. 2007, 20, 1315-1320) In this experiment, SHP2 was co-incubated with 100 μM compound (10) and 500 μM vanadate or DMSO for 10 minutes. The enzyme-inhibitor complex was then rapidly diluted 100-fold into a buffered solution containing 10 mM pNPP, and the absorbance at 405 nm was immediately monitored over time to determine the remaining enzymatic activity.
A solution containing 500 μM Vanadate or DMSO, 4 μM SHP2, and 100 μM (10) or DMSO in DMG buffer (with no EDTA) was added to a clear flat-bottom 96-well plate (Corning Costar Assay Plate #9017). This was allowed to incubate for 10 minutes at 25° C. before transferring 3 μL to a new clear flat-bottom 96-well plate (Corning Costar Assay Plate #9017). To each well was added 297 μL of 10.1 mM pNPP in DMG buffer (with EDTA) and the plate Plates were then read for absorbance at 405 nm using a CLARIOstar^Plus plate reader (BMG Labetch). Data was imported into Graphpad Prism 9 (GraphPad Software, San Diego, CA (US)), and a baseline correction analysis was completed for fitting purposes.

Row | SMILES | kinact/KI (SHP2 (residues 224-528); pH 7, role: inhibitor, substrate pNPP 3 mM, 100 nM SHP2, pH 7.0, 25° C, read-out: kinact/KI (converted)) [M⁻¹ s⁻¹] | fold increase in efficacy compared to PVSN (SHP2 (residues 224-528); role: inhibitor, kinact/KI relative to PVSN) | Found Ligand Adduct (mass shift) (SHP2 [1]; intact protein LC-MS) [Da] | % SHP2 Reacted (overall adduct formation) (SHP2 [1]; PVSN at 20 μM, compound 37 at 10 μM) [%] | residual SHP2 activity after jump-dilution (SHP2 [2]; 100 μM compound (10) alone) | residual SHP2 activity after jump-dilution with vanadate (SHP2 [2]; 100 μM compound (10) with 500 μM vanadate (competitive inhibitor)) | SHP2 activity recovery after jump-dilution, vanadate alone (SHP2 [2]; 500 μM vanadate, compared to DMSO control)
1 | C=C1C(=O)[C@@]2(C(=O)OC)CC(=O)C[C@@H]1C2 [Compound 10] | 20.5 | approximately 6 fold | 206 | 34 | negligible residual enzymatic activity; also recorded: Little residual activity was detected | substantial residual activity; also recorded: protected from inactivation | 
2 | [O]=[V]([O-])([O-])[O-] [vanadate, reference compound] |  |  |  |  |  |  | fully recovered activity
